Reference: ChEMBL document CHEMBL3430912, “GSK Tres Cantos Anti-Kinetoplastid Screening (TCAKS) Data”

What was measured:
[1] = system: Trypanosoma cruzi; test: GSK_TCAKS: pIC50 Trypanosoma cruzi Imaging: Amastigotes/Cell. […] Cells were then washed once with PBS before infection. T. cruzi trypomastigotes, collected at days 5 to 8 after infection from LLC-MK2 parasite infected cultures, were allowed to swim out for 4h at 37C from a centrifuged pellet (2,500 rpm/10 min/room temperature). Trypomastigotes were then collected and counted in a CASY Cell Counter. Trypomastigotes, in supplemented DMEM, were added to H9c2 cultures in a multiplicity of infection of 1 and incubated for 18 h. Cells were washed once with PBS before incubation of the infected H9c2 monolayer with trypsin (Life-Technologies) to detach cells from the flask. Cells were counted in a CASY Cell Counter using a 150 um capillary and their density set at 5 * 10^4 cells per mL in supplemented assay DMEM. Infected H9c2 were dispensed into 384-well poly-lysine coated assay plates at 50uL per well using a Multidrop Combi dispenser. After seeding them, the plates were incubated at 37C, 5% CO2 for 72h. Cultures were then fixed and stained by addition of 50 uL of a solution containing 8% formaldehyde and 4 uM DRAQ5 DNA dye (BioStatus, UK) per well. […] Five images were collected per well for reliable statistical analysis. Automated image analysis was performed with a script developed on Acapella High Content Imaging and Analysis Software (PerkinElmer). Output: number of amastigotes per cell as infection level measurement.; type: functional, organism-based, Rattus norvegicus; conditions: H9c2, 4 h
[2] = system: Trypanosoma brucei brucei; test: GSK_TCAKS: pIC50 Trypanosoma brucei viability assay using fluorescence intensity. Assay plates (1536-well) were prepared by dispensing 25nL of compound solution per well using an Echo acoustic dispenser (Labcyte).; type: functional, organism-based; conditions: Lister 427, 2 h
[3] = system: Trypanosoma cruzi; test: (§1) GSK_TCAKS: pIC50 Trypanosoma cruzi Imaging: Infected Cells. […] Cells were then washed once with PBS before infection. T. cruzi trypomastigotes, collected at days 5 to 8 after infection from LLC-MK2 parasite infected cultures, were allowed to swim out for 4h at 37C from a centrifuged pellet (2,500 rpm/10 min/room temperature). Trypomastigotes were then collected and counted in a CASY Cell Counter. Trypomastigotes, in supplemented DMEM, were added to H9c2 cultures in a multiplicity of infection of 1 and incubated for 18 h. Cells were washed once with PBS before incubation of the infected H9c2 monolayer with trypsin (Life-Technologies) to detach cells from the flask. Cells were counted in a CASY Cell Counter using a 150 um capillary and their density set at 5 * 10^4 cells per mL in supplemented assay DMEM. Infected H9c2 were dispensed into 384-well poly-lysine coated assay plates at 50uL per well using a Multidrop Combi dispenser. After seeding them, the plates were incubated at 37C, 5% CO2 for 72h. Cultures were then fixed and stained by addition of 50 uL of a solution containing 8% formaldehyde and 4 uM DRAQ5 DNA dye (BioStatus, UK) per well. […] Five images were collected per well for reliable statistical analysis. Automated image analysis was performed with a script developed on Acapella High Content Imaging and Analysis Software (PerkinElmer). Output: percentage of infected cells per well as a second infection marker.; type: functional, organism-based, Rattus norvegicus; conditions: H9c2, 4 h
[4] = GSK_TCAKS: pIC50 HepG2 human cell line viability assay using luminiscence. […] Seeding density was checked to ensure that new mono-layers were not more than 50% confluent at the time of harvesting. Cell suspension was added to 500 mL of the same medium at a final density of 1.2 * 10^5 cells/mL. This cell suspension was dispensed (25 uL, 3000 cells per well) into 384-well clear-bottom plates using a Multidrop Combi dispenser. Prior to addition of the cell suspension, the screening compounds (250 nL) were pre-dispensed into the plates with an Echo liquid handler. Plates were incubated for 48 h at 37C, 5% CO2. After incubation, plates equilibrated at room temperature for 30 min before proceeding to develop the luminescent signal. The signal developer, CellTiter-Glo Reagent, was allowed to equilibrate at room temperature for 30 min and added to the plates (25uL per well) using a Multidrop Combi dispenser. Plates were left for 10 min at room temperature for stabilization and then read using a ViewLux.; type: toxicity, cell-based
[5] = system: Trypanosoma cruzi; test: as §1, with “H2C9” for “Trypanosoma cruzi”, “H9c2 Host Cardiomyocytes.” for “Infected Cells.”, “Number” for “percentage”, “H9c2 Host Cardiomyocytes nuclei to determine drug-related cytotoxicity.” for “infected cells per well as a second infection marker.”; type: functional, organism-based, Rattus norvegicus; conditions: H9c2, 4 h
[6] = biological target: Sterol 14-alpha demethylase (Trypanosoma cruzi (strain CL Brener), UniProt Q7Z1V1); test: GSK_TCAKS: pIC50 CYP51 from Trypanosoma cruzi.; type: functional
Chain of Sterol 14-alpha demethylase (Q7Z1V1 whole entry): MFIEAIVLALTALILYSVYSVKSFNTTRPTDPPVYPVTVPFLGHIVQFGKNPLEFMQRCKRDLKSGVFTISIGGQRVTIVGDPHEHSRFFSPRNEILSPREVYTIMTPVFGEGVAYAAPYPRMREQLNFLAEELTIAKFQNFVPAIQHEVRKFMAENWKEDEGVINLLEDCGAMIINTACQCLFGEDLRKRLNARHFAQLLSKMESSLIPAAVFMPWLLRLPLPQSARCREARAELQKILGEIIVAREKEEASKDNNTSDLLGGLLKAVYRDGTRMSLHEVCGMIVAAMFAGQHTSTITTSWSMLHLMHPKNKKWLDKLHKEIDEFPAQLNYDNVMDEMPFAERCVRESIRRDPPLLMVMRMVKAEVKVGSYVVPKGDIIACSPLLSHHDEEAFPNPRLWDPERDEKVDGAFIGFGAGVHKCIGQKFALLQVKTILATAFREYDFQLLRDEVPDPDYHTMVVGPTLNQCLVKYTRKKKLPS

[7] = system: Leishmania donovani; test: (§2) GSK_TCAKS: pIC50 Leishmania donovani Imaging: THP-1 Host Macrophages. Assay plates (384-well) were prepared by adding 250nL of compound to each well. For single shot assay, the final compound concentration was 5 uM. […] Automated image analysis was performed with a script developed on Acapella High Content Imaging and Analysis Software (PerkinElmer). Output: THP-1 cell count were reported for each well.; type: functional, organism-based, Homo sapiens
[8] = system: Leishmania donovani; test: as §2, with “Amastigotes/Macrophages.” for “THP-1 Host Macrophages.”, “Average number of amastigotes per macrophage” for “THP-1”, “cell” for “cell count”; type: functional, organism-based, Homo sapiens; conditions: THP-1
[9] = system: Leishmania donovani; test: GSK_TCAKS: pIC50 Leishmania donovani viability assay using fluorescence intensity. Assay plates (1536-well) were prepared by adding 30nL per well of compound. For single shot assay, the final compound concentration was 5uM. […] Briefly, eGFP LdBOB axenic amastigotes were harvested, fixed and counted in a CASY cell counter (Roche-Applied Science). A final concentration of 1.5 * 10^5 cells per well were prepared in amastigote media containing 500 U/mL penicillin/streptomycin (Invitrogen) and 6uL was dispensed to each experimental well using a Multidrop Combi dispenser (Thermo Scientific). 6uL of assay media was dispensed to control columns used as reference for 100% compound response. Following incubation for 72 h at 37C, 5% CO2, 2 uL of resazurin was added to each well at a final concentration of 0.5 mM in phosphate buffered saline (PBS) with IGEPAL (Sigma-Aldrich), 0.05% (v/v).; type: functional, organism-based
[10] = system: Trypanosoma brucei brucei; test: GSK_TCAKS: pIC50 Trypanosoma brucei viability assay using luminiscence. Assay plates (1536-well) were prepared. T. brucei cultures were harvested and counted in a CASY cell counter. A parasite suspension was prepared at a final concentration of 5 * 10^4 cells/mL in complete HMI9 medium and 6uL was dispensed to all wells containing compounds using a Multidrop Combi dispenser. 6uL of HMI9 media with 0.4% DMSO were dispensed to control columns. Plates were incubated for 24 h at 37C, 5% CO2 then tempered for 10 min at room temperature. ATP content was quantified by adding 4 uL of CellTiter-Glo Reagent (Promega) according to the manufacturer's instructions. Luminescence was measured using a ViewLux.; type: functional, organism-based; conditions: Lister 427, CASY
[11] = system: Trypanosoma cruzi; test: GSK_TCAKS: pIC50 Trypanosoma cruzi viability assay using beta-GAL activity. This assay was run at single shot at 5uM compound concentration per well. The biological reagents consisted of NIH-3T3 host cells and trypomastigotes parasitic cells; both cell types were set to a 3.3 * 10^5 cells/mL dilution in assay DMEM by means of a CASY cell counter device using a 60um capillary. 6 uL of the mixture were dispensed per well (about 1 * 10^3 host-cells and 1 * 10^3 parasites) with a Multidrop Combi dispenser. […] In all wells, the percentage of DMSO never exceeded 0.5%. Plates incubated for four days at 37C, 5% CO2. The substrate used for the assay fluorescence intensity (FLINT) readout was resorufin-beta-D-galactopiranoside (Sigma-Aldrich) at 5uM per well. It was diluted in PBS supplemented with the soft detergent Igepal (Fluka).; type: functional, organism-based, Mus musculus; conditions: Tulahuen, NIH3T3
[12] = system: Leishmania donovani; test: as §2, with “Infected” for “THP-1 Host”, “Percent of infected macrophage cells” for “THP-1 cell count”; type: functional, organism-based, Homo sapiens; conditions: THP-1

SMILES | IC50 [1] [µM] | IC50 [2] [µM] | IC50 [3] [µM] | IC50 at 48 h [4] [µM] | IC50 [5] [µM] | IC50 [6] [µM] | IC50 [7] [µM] | IC50 [8] [µM] | IC50 [9] [µM] | IC50 [10] [µM] | IC50 [11] [µM] | IC50 [12] [µM]
CCCc1cc(N)nc(-c2cc(CCC)cc(N)n2)c1 | 0.501 | 3.16 | 0.631 | 31.6 | 0.2 | > 100 | 20 | 1.58 | 20 | 7.94 | 2 | 2.51
CCOc1cc(NCCCN2CCN(C)CC2)c2ncccc2c1 | 1 | 12.6 | 1.26 | 31.6 | 31.6 | > 100 | 6.31 | 0.794 | 39.8 | 20 | 1.78 | 1.26
Cc1cc(-c2cccc3ccccc23)nc2nc(N)nc(N)c12 | 31.6 | 31.6 | > 50.1 | 50.1 | > 50.1 | > 100 | 50.1 | 1 | 2 | 20 | 39.8 | 5.01
N#Cc1ccc(Br)cc1[N+](=O)[O-] | 0.0631 | 0.158 | 0.794 | 20 | 39.8 | 50.1 | 25.1 | 12.6 | 7.94 | 0.2 | 0.251 | 20
COc1ccc([N+](=O)[O-])cc1NC(=O)c1cc(Cl)ccc1O | 7.94 | 25.1 | 15.8 | 10 | > 50.1 | > 100 | 10 | 1.58 | 7.94 | 25.1 | 31.6 | 2
O=C(Nc1ccccc1C(=O)Nc1ccccn1)c1ccco1 | > 50.1 | 0.251 | > 50.1 | > 100 | > 50.1 | > 100 | > 50.1 | > 50.1 | > 50.1 | 0.501 | > 50.1 | > 50.1
COc1cccc(Nc2cc(C)nc(-c3ccccn3)n2)c1 | 7.94 | > 39.8 | 12.6 | 50.1 | 5.01 | > 100 | > 50.1 | 1.26 | 3.98 | > 39.8 | 3.16 | 2
CCCCn1c(=O)c2c(N)onc2n(CCCC)c1=O | 25.1 | 0.631 | 31.6 | 50.1 | 25.1 | 79.4 | > 50.1 | 31.6 | > 50.1 | 0.501 | 25.1 | > 50.1
Nc1nccc(-c2csc(Nc3ccc(Cl)cc3)n2)n1 | > 50.1 | > 39.8 | > 50.1 | > 100 | 2 | 1.26 | > 50.1 | 1 | 3.98 | > 39.8 | 1.26 | 1
